Each block holds one compound with its values, some of them ahead of it.
Key:
[1] = target: Rho-associated protein kinase 2 (Homo sapiens) (UniProt O75116); assay: Inhibition of ROCK2 (unknown origin) at 0.078 uM relative to control
[2] = target: T1, Serine/threonine-protein kinase Sgk1 (Homo sapiens) (UniProt O00141); assay: Inhibition of SGK1 (unknown origin) at 0.078 uM relative to control
T1 sequence (whole entry): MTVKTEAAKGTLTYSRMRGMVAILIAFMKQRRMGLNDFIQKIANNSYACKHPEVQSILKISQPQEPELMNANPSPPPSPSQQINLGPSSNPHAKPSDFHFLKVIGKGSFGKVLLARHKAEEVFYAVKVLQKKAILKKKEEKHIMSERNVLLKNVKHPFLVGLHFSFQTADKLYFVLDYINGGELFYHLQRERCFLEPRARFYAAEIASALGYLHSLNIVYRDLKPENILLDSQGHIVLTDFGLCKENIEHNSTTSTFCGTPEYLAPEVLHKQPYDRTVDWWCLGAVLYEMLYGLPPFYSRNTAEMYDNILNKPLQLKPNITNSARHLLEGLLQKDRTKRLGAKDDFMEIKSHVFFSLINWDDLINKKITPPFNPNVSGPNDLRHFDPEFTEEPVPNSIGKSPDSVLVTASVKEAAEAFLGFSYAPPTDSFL

[3] = target: AMP-activated protein kinase, AMPK (Homo sapiens) (UniProt P54646+O43741+P54619+Q9UGJ0+Q9Y478+Q13131+Q9UGI9); assay: Inhibition of AMPK (unknown origin) at 0.078 uM relative to control
[4] = target: Serine/threonine-protein kinase Nek9 (Homo sapiens) (UniProt Q8TD19); assay: Inhibition of NEK9 (unknown origin) at 0.45 uM relative to control
Serine/threonine-protein kinase Nek9 (Homo sapiens), sequence (Q8TD19 whole entry): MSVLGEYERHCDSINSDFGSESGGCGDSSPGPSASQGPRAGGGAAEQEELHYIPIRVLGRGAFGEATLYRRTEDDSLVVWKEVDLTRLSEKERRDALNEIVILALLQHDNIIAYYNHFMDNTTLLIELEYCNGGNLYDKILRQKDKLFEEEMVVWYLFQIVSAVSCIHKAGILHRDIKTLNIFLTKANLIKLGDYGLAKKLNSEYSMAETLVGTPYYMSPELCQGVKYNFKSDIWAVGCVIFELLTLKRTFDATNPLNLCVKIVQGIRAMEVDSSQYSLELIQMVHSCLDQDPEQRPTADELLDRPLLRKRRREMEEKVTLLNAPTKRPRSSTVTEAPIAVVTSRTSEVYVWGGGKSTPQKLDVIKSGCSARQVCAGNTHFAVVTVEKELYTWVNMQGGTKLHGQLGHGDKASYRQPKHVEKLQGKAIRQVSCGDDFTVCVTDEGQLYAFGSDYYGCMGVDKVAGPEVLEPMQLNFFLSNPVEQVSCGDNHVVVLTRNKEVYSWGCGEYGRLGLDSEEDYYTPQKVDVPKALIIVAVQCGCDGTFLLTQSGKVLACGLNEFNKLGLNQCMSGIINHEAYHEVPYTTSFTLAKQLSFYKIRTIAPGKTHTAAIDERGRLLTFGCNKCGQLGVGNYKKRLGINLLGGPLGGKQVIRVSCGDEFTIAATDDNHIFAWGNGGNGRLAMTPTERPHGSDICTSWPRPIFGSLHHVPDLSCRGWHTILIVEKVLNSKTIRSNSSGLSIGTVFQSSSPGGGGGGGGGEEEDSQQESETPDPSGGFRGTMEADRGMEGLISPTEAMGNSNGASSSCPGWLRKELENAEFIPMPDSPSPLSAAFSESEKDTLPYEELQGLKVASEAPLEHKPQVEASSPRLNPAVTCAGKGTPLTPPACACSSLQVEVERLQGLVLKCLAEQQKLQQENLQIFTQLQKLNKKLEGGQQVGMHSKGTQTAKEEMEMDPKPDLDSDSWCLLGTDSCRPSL

[5] = target: Vascular endothelial growth factor receptor 3 (Homo sapiens) (UniProt P35916); assay: Inhibition of FLT4 (unknown origin) at 0.45 uM relative to control
[6] = target: Cyclin-dependent kinase 9 (Homo sapiens) (UniProt P50750); assay: Inhibition of CDK9 (unknown origin) at 0.45 uM relative to control
[7] = target: Mitogen-activated protein kinase kinase kinase kinase 4 (Homo sapiens) (UniProt O95819); assay: Inhibition of HGK (unknown origin) at 0.45 uM relative to control
[8] = target: RAC-beta serine/threonine-protein kinase (Homo sapiens) (UniProt P31751); assay: Inhibition of AKT2 (unknown origin) at 0.45 uM relative to control
[9] = target: Phosphorylase b kinase gamma catalytic chain, skeletal muscle/heart isoform (Homo sapiens) (UniProt Q16816); assay: Inhibition of PhKg1 (unknown origin) at 0.45 uM relative to control
[10] = target: Ribosomal protein S6 kinase alpha-6 (Homo sapiens) (UniProt Q9UK32); assay: Inhibition of RSK4 (unknown origin) at 0.45 uM relative to control
[11] = target: T2, Cyclin-dependent kinase 5/CDK5 activator 1 (Homo sapiens) (UniProt Q00535+Q15078); assay: Inhibition of CDK5/p25 (unknown origin) at 0.45 uM relative to control; type: protein-complex assay
T2 sequence (Q00535 whole entry): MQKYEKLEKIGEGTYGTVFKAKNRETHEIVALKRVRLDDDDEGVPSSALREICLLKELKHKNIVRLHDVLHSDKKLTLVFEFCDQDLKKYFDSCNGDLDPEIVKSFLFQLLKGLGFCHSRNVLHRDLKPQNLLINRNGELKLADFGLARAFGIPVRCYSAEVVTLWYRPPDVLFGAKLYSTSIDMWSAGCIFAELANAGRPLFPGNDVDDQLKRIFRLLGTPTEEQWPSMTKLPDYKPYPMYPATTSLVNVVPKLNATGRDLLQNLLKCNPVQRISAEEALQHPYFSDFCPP
T2 sequence (Q15078 99-307 partner limits assumed): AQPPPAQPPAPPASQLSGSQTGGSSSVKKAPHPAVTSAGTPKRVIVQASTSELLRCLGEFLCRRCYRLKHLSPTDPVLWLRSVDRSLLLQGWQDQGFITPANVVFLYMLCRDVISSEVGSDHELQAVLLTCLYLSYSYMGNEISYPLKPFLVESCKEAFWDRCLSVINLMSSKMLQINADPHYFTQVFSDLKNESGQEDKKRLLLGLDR

[12] = target: Dual specificity protein kinase CLK2 (Homo sapiens) (UniProt P49760); assay: Inhibition of CLK2 (unknown origin) at 0.45 uM relative to control
[13] = test system: Proto-oncogene tyrosine-protein kinase receptor Ret (Homo sapiens), P07949 [M918T]; assay: Inhibition of RET M918T mutant (unknown origin) at 0.45 uM relative to control
[14] = target: T3, cGMP-dependent protein kinase 1 (Homo sapiens) (UniProt Q13976); assay: Inhibition of PKG1-beta (unknown origin) at 0.45 uM relative to control
T3 sequence (whole entry): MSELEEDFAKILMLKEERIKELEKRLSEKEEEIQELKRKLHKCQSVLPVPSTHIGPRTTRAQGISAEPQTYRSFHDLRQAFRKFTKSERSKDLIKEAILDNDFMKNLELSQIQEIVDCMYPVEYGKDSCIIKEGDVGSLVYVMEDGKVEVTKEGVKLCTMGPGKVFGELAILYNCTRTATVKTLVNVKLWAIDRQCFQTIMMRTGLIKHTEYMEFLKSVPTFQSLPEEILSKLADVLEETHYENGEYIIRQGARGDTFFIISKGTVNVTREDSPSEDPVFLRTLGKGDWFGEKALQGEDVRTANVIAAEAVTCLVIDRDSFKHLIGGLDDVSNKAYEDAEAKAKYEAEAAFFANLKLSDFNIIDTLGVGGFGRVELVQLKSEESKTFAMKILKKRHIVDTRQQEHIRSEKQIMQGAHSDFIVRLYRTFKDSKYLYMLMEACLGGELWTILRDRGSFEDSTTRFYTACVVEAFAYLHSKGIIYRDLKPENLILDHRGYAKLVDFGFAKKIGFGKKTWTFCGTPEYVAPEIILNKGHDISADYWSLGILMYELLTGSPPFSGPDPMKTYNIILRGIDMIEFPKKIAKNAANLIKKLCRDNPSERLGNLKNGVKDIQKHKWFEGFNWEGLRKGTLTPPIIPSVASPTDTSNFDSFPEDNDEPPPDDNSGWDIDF

[15] = test system: Tyrosine-protein kinase ABL1 (Homo sapiens), P00519 [E255K]; assay: Inhibition of ABL1 E255K mutant (unknown origin) at 0.45 uM relative to control
[16] = test system: Proto-oncogene tyrosine-protein kinase receptor Ret (Homo sapiens), P07949 [Y791F]; assay: Inhibition of RET Y791F mutant (unknown origin) at 0.49 uM relative to control
[17] = target: Rho-associated protein kinase 2 (Homo sapiens) (UniProt O75116); assay: Inhibition of ROCK2 (unknown origin) at 0.49 uM relative to control
[18] = target: Dual specificity tyrosine-phosphorylation-regulated kinase 1B (Homo sapiens) (UniProt Q9Y463); assay: Inhibition of DYRK1B (unknown origin) at 0.49 uM relative to control
Dual specificity tyrosine-phosphorylation-regulated kinase 1B (Homo sapiens), sequence (Q9Y463 whole entry, looked up): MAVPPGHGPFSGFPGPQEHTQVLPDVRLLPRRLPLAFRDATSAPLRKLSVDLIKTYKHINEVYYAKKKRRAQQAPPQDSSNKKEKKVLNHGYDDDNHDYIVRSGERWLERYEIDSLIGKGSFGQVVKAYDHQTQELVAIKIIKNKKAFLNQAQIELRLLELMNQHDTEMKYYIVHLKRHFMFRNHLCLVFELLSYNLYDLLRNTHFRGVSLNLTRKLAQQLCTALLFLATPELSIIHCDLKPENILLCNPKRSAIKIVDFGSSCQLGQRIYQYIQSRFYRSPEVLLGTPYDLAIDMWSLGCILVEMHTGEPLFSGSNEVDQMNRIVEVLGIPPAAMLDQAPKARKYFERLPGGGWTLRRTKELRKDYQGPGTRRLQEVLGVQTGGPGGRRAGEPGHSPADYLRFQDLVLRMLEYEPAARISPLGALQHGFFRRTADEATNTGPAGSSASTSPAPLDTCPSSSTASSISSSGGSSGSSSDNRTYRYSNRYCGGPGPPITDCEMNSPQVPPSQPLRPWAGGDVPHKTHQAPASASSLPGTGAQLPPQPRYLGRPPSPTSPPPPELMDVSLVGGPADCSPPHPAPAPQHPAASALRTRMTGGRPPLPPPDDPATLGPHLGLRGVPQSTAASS

[19] = target: Vascular endothelial growth factor receptor 1 (Homo sapiens) (UniProt P17948); assay: Inhibition of FLT1 (unknown origin) at 0.49 uM relative to control
[20] = target: Casein kinase I isoform epsilon (Homo sapiens) (UniProt P49674); assay: Inhibition of CK1-epsilon (unknown origin) at 0.49 uM relative to control
[21] = target: Tyrosine-protein kinase JAK3 (Homo sapiens) (UniProt P52333); assay: Inhibition of JAK3 (unknown origin) at 0.49 uM relative to control
Tyrosine-protein kinase JAK3 (Homo sapiens), sequence (P52333 whole entry): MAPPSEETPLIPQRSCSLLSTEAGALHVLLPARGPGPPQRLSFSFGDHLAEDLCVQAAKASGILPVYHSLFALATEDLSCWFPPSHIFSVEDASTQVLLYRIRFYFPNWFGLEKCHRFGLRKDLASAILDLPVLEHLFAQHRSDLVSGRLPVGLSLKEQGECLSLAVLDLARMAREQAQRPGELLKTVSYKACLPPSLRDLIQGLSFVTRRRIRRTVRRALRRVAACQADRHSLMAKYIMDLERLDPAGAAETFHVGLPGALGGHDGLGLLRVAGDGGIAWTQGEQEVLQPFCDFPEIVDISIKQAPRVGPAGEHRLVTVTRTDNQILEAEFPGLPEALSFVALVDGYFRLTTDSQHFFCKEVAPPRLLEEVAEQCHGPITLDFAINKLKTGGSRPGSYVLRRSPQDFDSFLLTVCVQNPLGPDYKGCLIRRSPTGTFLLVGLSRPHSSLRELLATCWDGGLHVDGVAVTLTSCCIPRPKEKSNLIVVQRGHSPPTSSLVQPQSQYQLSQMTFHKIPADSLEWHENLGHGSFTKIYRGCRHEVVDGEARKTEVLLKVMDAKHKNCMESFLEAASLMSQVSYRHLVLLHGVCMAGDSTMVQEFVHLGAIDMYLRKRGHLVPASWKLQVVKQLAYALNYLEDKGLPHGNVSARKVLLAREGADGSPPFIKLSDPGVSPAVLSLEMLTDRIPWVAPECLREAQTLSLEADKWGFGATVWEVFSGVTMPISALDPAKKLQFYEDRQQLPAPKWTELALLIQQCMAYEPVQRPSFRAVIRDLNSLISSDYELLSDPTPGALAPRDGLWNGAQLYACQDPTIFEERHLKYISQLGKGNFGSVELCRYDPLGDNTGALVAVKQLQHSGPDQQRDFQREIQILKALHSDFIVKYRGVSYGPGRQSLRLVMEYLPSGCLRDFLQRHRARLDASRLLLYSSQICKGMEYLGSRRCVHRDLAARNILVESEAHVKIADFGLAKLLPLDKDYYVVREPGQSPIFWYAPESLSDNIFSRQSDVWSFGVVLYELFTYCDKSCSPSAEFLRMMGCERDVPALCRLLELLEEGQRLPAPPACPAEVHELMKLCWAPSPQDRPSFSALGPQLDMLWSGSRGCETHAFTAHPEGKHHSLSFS

[22] = target: CDK4/Cyclin D3 (Homo sapiens) (UniProt P11802+P30281); assay: Inhibition of CDK4/CyclinD3 (unknown origin) at 0.49 uM relative to control; type: protein-complex assay
[23] = target: Casein kinase I isoform delta (Homo sapiens) (UniProt P48730); assay: Inhibition of CK1-delta (unknown origin) at 0.49 uM relative to control
Casein kinase I isoform delta (Homo sapiens), sequence (P48730 whole entry, looked up, canonical isoform): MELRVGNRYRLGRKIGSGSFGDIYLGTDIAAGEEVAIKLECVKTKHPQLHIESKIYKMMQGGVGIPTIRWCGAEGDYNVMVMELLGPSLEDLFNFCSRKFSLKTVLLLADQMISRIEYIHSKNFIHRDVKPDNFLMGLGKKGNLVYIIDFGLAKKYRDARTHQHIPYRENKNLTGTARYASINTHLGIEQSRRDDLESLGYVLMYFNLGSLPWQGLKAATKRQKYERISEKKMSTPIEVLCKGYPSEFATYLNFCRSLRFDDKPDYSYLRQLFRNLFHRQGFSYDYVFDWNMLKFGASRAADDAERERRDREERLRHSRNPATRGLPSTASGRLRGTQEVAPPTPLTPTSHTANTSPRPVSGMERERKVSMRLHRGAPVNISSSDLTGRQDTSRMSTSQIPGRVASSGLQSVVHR

[24] = target: T2, Cyclin-dependent kinase 5/CDK5 activator 1 (Homo sapiens); assay: Inhibition of CDK5/p25 (unknown origin) at 0.49 uM relative to control; type: protein-complex assay
[25] = target: Ephrin type-A receptor 3 (Homo sapiens) (UniProt P29320); assay: Inhibition of EPHA3 (unknown origin) at 0.49 uM relative to control

Rho-associated protein kinase 2 (Homo sapiens), sequence (O75116 whole entry, looked up): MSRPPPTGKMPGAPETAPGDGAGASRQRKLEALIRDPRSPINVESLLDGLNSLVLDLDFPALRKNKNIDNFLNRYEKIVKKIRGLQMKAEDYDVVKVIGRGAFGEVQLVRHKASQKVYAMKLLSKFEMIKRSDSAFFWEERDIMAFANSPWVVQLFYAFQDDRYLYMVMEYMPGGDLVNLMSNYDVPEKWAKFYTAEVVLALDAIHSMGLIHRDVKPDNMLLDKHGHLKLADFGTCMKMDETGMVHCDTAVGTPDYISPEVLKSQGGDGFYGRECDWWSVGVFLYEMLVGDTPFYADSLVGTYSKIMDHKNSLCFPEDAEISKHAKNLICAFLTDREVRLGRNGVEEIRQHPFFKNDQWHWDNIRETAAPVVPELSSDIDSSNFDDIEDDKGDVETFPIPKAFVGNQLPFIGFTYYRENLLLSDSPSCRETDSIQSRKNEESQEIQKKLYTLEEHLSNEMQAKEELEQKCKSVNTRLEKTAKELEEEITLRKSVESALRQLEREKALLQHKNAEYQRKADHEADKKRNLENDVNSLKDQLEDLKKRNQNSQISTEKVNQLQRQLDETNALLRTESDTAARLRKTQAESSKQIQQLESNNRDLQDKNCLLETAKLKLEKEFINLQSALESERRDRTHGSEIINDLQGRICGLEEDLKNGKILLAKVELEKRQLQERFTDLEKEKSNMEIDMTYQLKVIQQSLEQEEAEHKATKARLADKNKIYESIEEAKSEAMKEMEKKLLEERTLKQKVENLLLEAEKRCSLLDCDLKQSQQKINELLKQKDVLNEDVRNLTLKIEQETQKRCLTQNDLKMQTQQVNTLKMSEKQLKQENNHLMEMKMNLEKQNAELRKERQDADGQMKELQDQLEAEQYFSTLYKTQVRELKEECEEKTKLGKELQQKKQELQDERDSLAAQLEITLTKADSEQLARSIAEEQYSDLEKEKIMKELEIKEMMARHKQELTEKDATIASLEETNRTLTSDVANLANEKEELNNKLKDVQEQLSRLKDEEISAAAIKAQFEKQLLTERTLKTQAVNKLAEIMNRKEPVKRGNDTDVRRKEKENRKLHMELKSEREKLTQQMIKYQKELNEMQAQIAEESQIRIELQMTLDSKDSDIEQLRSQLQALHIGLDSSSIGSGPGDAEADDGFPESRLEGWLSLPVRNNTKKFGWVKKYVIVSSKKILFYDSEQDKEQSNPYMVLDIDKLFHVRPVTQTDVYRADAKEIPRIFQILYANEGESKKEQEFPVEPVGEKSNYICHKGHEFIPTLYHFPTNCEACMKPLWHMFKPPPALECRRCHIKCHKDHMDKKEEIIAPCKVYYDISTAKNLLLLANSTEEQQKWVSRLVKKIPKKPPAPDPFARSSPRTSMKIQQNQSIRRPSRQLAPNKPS

inhibition [1]: -2% | inhibition [2]: -10% | inhibition [3]: 2.7%
Structure (SMILES): COC(=O)Nc1noc2cc(-c3c(-c4ccccn4)n[nH]c3C)ccc12

inhibition [5]: 10% | inhibition [6]: 9.3% | inhibition [7]: 73.3% | inhibition [8]: -2% | inhibition [9]: 0.7% | inhibition [10]: 50.7% | inhibition [11]: 0.3% | inhibition [12]: 9% | inhibition [13]: 57.7% | inhibition [14]: 8% | inhibition [15]: 72.7%
Structure (SMILES): Cc1n[nH]c(C)c1-c1ccc2c(NC(=O)c3ccc(N4CCN(C)CC4)cc3)n[nH]c2c1
inhibition [4]: 1.7%

inhibition [16]: 0% | inhibition [17]: 8.7% | inhibition [18]: 2% | inhibition [19]: -2.3% | inhibition [20]: 1% | inhibition [21]: -7.3% | inhibition [22]: -6.7% | inhibition [23]: 6.7% | inhibition [24]: 4.3% | inhibition [25]: 0.7%
Structure (SMILES): Cc1[nH]nc(C2CC2)c1-c1ccc2c(NC(=O)C3CC3)noc2c1
